From patent US20250114345A1, “COMPOUNDS AND COMPOSITIONS AS CBP/P300 DEGRADERS AND USES THEREOF” (Oncopia Therapeutics, Inc. d/b/a/ SK Life Science Labs, priority 2023, published 2025) come the findings set out here.

The target in this test is T1, p300 (Homo sapiens, UniProt Q09472).
T1 construct: host or cells: A549 P300 HiBit cells
Description: P300 degradation, HiBit technology in A549 P300 HiBit cells (2 h). In kind it is cell-based. To be noted: 2 hrs post treatment; for Dmax: A549, A549 P300 HiBit cells; for DC50: A549 P300 HiBit cells. In short, it runs like this: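 Cells: A549 HiBiT-tagged lines, 0.2×10^4/well, F-12K + 10% HI-FBS, equilibrated overnight. Tx: serial dilution of cpd (10 mM DMSO stock). Readout: HiBiT lytic reagent, 10 min RT shaking, luminescence → potency, Dmax.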
For orientation: The HiBiT peptide binds its large partner to form an active luciferase.

Structures are written as SMILES. A value given as a limit tells only on which side of the number the result lay.

T1 sequence (Q09472 whole entry): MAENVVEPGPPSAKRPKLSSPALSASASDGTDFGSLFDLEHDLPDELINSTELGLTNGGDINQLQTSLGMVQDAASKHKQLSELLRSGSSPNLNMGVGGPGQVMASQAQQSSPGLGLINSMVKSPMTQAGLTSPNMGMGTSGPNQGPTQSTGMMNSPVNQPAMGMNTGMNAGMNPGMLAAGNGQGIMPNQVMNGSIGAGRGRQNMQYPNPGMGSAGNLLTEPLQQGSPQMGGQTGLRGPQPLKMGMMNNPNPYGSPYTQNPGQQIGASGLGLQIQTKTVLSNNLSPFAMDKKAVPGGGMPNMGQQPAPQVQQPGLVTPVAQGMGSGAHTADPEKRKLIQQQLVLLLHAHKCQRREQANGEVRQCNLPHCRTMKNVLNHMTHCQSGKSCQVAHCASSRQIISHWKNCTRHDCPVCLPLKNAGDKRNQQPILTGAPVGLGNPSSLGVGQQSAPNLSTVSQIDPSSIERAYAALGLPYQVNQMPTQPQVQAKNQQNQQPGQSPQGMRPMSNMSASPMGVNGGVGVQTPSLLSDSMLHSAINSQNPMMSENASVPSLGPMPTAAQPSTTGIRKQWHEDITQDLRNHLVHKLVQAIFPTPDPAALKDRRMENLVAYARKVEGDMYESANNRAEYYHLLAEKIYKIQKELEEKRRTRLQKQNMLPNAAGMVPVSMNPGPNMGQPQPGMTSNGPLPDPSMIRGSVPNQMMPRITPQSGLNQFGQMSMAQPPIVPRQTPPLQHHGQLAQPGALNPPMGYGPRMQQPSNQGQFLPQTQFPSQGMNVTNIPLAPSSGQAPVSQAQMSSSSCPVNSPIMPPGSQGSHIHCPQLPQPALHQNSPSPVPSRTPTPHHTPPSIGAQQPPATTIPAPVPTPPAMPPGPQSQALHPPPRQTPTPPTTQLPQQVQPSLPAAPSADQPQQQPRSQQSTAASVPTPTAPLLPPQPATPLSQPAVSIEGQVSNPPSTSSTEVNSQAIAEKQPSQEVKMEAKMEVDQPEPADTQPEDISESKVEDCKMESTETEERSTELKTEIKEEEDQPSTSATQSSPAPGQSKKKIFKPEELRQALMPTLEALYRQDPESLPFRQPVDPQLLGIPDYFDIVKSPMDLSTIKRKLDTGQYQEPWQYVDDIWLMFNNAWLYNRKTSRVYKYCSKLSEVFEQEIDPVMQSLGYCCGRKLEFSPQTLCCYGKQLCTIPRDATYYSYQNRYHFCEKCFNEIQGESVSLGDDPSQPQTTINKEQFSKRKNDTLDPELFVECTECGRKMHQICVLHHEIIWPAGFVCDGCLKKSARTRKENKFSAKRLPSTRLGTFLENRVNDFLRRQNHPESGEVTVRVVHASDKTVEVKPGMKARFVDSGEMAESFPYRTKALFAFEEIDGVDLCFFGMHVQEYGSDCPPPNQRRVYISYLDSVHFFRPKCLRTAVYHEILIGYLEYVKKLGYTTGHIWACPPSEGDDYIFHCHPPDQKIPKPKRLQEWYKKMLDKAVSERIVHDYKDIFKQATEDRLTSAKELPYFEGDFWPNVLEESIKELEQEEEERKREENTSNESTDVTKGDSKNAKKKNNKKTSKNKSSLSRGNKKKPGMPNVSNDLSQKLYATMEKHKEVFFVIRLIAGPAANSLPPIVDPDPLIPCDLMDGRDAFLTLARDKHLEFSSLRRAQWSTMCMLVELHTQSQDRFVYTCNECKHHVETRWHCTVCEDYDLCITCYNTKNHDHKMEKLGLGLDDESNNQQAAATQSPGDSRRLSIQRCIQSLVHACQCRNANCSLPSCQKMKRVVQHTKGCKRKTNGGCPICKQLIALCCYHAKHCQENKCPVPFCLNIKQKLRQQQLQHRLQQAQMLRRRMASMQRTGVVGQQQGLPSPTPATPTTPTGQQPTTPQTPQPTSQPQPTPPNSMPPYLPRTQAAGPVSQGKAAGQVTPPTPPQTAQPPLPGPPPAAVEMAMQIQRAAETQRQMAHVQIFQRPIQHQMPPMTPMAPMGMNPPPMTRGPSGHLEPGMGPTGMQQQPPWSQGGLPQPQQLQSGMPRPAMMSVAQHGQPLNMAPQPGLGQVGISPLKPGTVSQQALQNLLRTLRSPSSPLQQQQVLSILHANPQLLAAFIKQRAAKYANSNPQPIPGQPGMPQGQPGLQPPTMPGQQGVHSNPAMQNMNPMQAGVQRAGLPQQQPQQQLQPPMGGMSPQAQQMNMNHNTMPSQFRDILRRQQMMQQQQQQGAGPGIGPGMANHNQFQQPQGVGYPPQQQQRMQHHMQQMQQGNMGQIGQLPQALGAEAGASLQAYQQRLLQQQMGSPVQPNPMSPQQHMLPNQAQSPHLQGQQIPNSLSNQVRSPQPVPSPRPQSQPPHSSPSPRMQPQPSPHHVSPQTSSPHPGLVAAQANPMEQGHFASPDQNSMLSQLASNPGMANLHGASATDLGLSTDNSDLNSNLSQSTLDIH

Take `CCN(c1cnc(-c2ccc(C(=O)NCC#Cc3cc4c(C5CCC(=O)NC5=O)cccc4o3)nc2)nc1)c1cc(C2CCOCC2)c2c(c1)n(C)c(=O)n2C` (centres unmarked) [Example A224, 5-(5-((1,3-dimethyl-2-oxo-7-(tetrahydro-2H-pyran-4-yl)-2,3-dihydro-1H-benzo[d]imidazol-5-yl)(ethyl)amino)pyrimidin-2-yl)-N-(3-(4-(2,6-dioxopiperidin-3-yl)benzofuran-2-yl)prop-2-yn-1-yl)picolinamide]: the Dmax (as a rule, the greatest extent of degradation seen) is above 80% and the DC50 (usually the midpoint of the concentration-degradation curve) was 1 to 9.9 nM.
`Cc1cc(-c2ncc(N(C)c3cc(C4CCOCC4)c4c(c3)n(C)c(=O)n4C)c(N(C)C)n2)cnc1C(=O)NCC#Cc1cc2c(C3CCC(=O)NC3=O)cccc2o1` (centres unmarked) [Example A225, 5-(5-((1,3-dimethyl-2-oxo-7-(tetrahydro-2H-pyran-4-yl)-2,3-dihydro-1H-benzo[d]imidazol-5-yl)(methyl)amino)-4-(dimethylamino)pyrimidin-2-yl)-N-(3-(4-(2,6-dioxopiperidin-3-yl)benzofuran-2-yl)prop-2-yn-1-yl)-3-methylpicolinamide] yielded a Dmax below 20% and a DC50 above 1000 nM.
The matching figures for `Cc1cc(-c2ncc3c(n2)CCCN3c2cc(C)c3c(c2)n(C)c(=O)n3C)cnc1C(=O)NCC#Cc1cc2c(C3CCC(=O)NC3=O)cccc2o1` (centres unmarked) [Example A227, N-(3-(4-(2,6-dioxo-piperidin-3-yl)benzofuran-2-yl)prop-2-yn-1-yl)-3-methyl-5-(5-(1,3,7-trimethyl-2-oxo-2,3-dihydro-1H-benzo [d]imidazol-5-yl)-5,6,7,8-tetrahydro-pyrido[3,2-d]pyrimidin-2-yl)picolinamide]: above 80% and 1 to 9.9 nM.
`CC(C)c1cc(-c2cccc3cc(-c4ccc(C(=O)NCC#Cc5cc6c(C7CCC(=O)NC7=O)coc6cn5)nc4)ncc23)cc2c1n(C)c(=O)n2C` (centres unmarked) [Example A228, N-(3-(3-(2,6-dioxo-piperidin-3-yl)furo[2,3-c]pyridin-5-yl)prop-2-yn-1-yl)-5-(8-(7-isopropyl-1,3-dimethyl-2-oxo-2,3-dihydro-1H-benzo [d]imidazol-5-yl)isoquinolin-3-yl)picolinamide] showed a Dmax of 60 to 79% and a DC50 of 1 to 9.9 nM.
In turn, `CN(c1cnc(-c2ccc(C(=O)NCC#Cc3cc4c(C5CCC(=O)NC5=O)cccc4o3)nc2)nc1)c1cc(C2CCOCC2)c2c(c1)n(C)c(=O)n2C` (centres unmarked) [Example A229, 5-(5-((1,3-dimethyl-2-oxo-7-(tetrahydro-2H-pyran-4-yl)-2,3-dihydro-1H-benzo[d]imidazol-5-yl)(methyl)amino)pyrimidin-2-yl)-N-(3-(4-(2,6-dioxo-piperidin-3-yl)benzofuran-2-yl)prop-2-yn-1-yl)picolinamide] gave a Dmax above 80% and a DC50 below 1 nM.
In turn, `Cn1cc(-c2ccc3c(c2)n(C)c(=O)n3C)c2cnc(-c3ccc(C(=O)NCC#Cc4cc5c(C6CCC(=O)NC6=O)nccc5o4)nc3)cc2c1=O` (centres unmarked) [Example A230, 5-(8-(1,3-dimethyl-2-oxo-2,3-dihydro-1H-benzo[d]imidazol-5-yl)-6-methyl-5-oxo-5,6-dihydro-2,6-naphthyridin-3-yl)-N-(3-(4-(2,6-dioxopiperidin-3-yl)furo[3,2-c]pyridin-2-yl)prop-2-yn-1-yl)picolinamide] displayed a Dmax above 80% and a DC50 of 1 to 9.9 nM.
Molecule `Cc1cc(-c2ncc3c(n2)CCCN3c2ccc3c(c2)n(C)c(=O)n3C)cnc1C(=O)NCC#Cc1cc2c(C3CCC(=O)NC3=O)cccc2o1` (centres unmarked) [Example A231, 5-(5-(1,3-dimethyl-2-oxo-2,3-dihydro-1H-benzo[d]imidazol-5-yl)-5,6,7,8-tetra-hydropyrido[3,2-d]pyrimidin-2-yl)-N-(3-(4-(2,6-dioxo-piperidin-3-yl)benzofuran-2-yl)prop-2-yn-1-yl)-3-methylpicolinamide] returned a Dmax above 80% and a half-maximal degradation concentration (DC50) of 1 to 9.9 nM.
The matching figures for `CC(C)c1cc(-c2cccc3cc(-c4ccc(C(=O)NCC#Cc5cc6c(C7CCC(=O)NC7=O)cn(C)c6cn5)nc4)ncc23)cc2c1n(C)c(=O)n2C` (centres unmarked) [Example A232, N-(3-(3-(2,6-dioxo-piperidin-3-yl)-1-methyl-1H-pyrrolo [2,3-c]pyridin-5-yl)prop-2-yn-1-yl)-5-(8-(7-isopropyl-1,3-dimethyl-2-oxo-2,3-dihydro-1H-benzo[d]imidazol-5-yl)isoquinolin-3-yl)picolinamide]: 40 to 59% and 10 to 99 nM.
In turn, `CC(C)c1cc(-c2cccc3cc(-c4ccc(C(=O)NCC#Cc5cc(C#N)c6occ(C7CCC(=O)NC7=O)c6c5)nc4)ncc23)cc2c1n(C)c(=O)n2C` (centres unmarked) [Example A233, N-(3-(7-cyano-3-(2,6-dioxopiperidin-3-yl)benzofuran-5-yl)prop-2-yn-1-yl)-5-(8-(7-isopropyl-1,3-dimethyl-2-oxo-2,3-dihydro-1H-benzo [d]imidazol-5-yl)isoquinolin-3-yl)picolinamide] registered a Dmax of 40 to 59% and a DC50 of 10 to 99 nM.
Regarding `Cc1cc(-c2ncc(N(C)c3cc(C(C)C)c4c(c3)n(C)c(=O)n4C)cn2)cnc1C(=O)NCC#Cc1cc2c(C3CCC(=O)NC3=O)coc2cc1F` (centres unmarked) [Example A235, N-(3-(3-(2,6-dioxo-piperidin-3-yl)-6-fluorobenzofuran-5-yl)prop-2-yn-1-yl)-5-(5-((7-isopropyl-1,3-dimethyl-2-oxo-2,3-dihydro-1H-benzo [d]imidazol-5-yl)(methyl)amino)pyrimidin-2-yl)-3-methylpicolinamide], the Dmax was above 80% and the DC50 lay within 1 to 9.9 nM.
The matching figures for `Cc1cc(-c2ncc(Nc3cc(C4CCOCC4)c4c(c3)n(C)c(=O)n4C)cn2)cnc1C(=O)NCC#Cc1cc2c(C3CCC(=O)NC3=O)cccc2o1` (centres unmarked) [Example A236, 5-(5-((1,3-dimethyl-2-oxo-7-(tetrahydro-2H-pyran-4-yl)-2,3-dihydro-1H-benzo[d]imidazol-5-yl)amino)pyrimidin-2-yl)-N-(3-(4-(2,6-dioxopiperidin-3-yl)benzofuran-2-yl)prop-2-yn-1-yl)-3-methylpicolinamide]: 40 to 59% and 10 to 99 nM.
The corresponding values for `Cc1cc(N2CCN(C)c3cc(-c4ccc(C(=O)NCC#Cc5cc6c(C7CCC(=O)NC7=O)cccc6o5)nc4)ncc32)cc2c1n(C)c(=O)n2C` (centres unmarked) [Example A239, N-(3-(4-(2,6-dioxo-piperidin-3-yl)benzofuran-2-yl)prop-2-yn-1-yl)-5-(1-methyl-4-(1,3,7-trimethyl-2-oxo-2,3-dihydro-1H-benzo [d]imidazol-5-yl)-1,2,3,4-tetrahydro-pyrido[3,4-b]pyrazin-7-yl)picolinamide] are above 80% and below 1 nM.
In turn, `CC(C)c1cc(-c2cccc3cc(-c4ccc(C(=O)NCC#Cc5cc6c(C7CCC(=O)NC7=O)coc6cc5C#N)nc4)ncc23)cc2c1n(C)c(=O)n2C` (centres unmarked) [Example A240, N-(3-(6-cyano-3-(2,6-dioxopiperidin-3-yl)benzofuran-5-yl)prop-2-yn-1-yl)-5-(8-(7-isopropyl-1,3-dimethyl-2-oxo-2,3-dihydro-1H-benzo [d]imidazol-5-yl)isoquinolin-3-yl)picolinamide] showed a Dmax of 40 to 59% and a DC50 of 10 to 99 nM.
